According to PubChem BioAssay (NCI):
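Growth conditions: 96-well plates. Treatment: test compound, 48 hours, 5 concentrations. Analysis: linear interpolation between bracketing concentrations; unreached endpoints set to highest concentration. Abbreviation: GI50, concentration required for 50% inhibition of growth. At the TGI there is no net growth.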

Tests used:
Assay in all cases: NCI anticancer screen, dose series, 48 h
[1] = tested on: 786-0 renal
[2] = tested on: A498 renal
[3] = tested on: A549 NSCLC
[4] = tested on: ACHN renal
[5] = tested on: BT-549 breast
[6] = tested on: CAKI-1 renal
[7] = tested on: COLO 205 colon
[8] = tested on: DU-145 prostate
[9] = tested on: HCC-2998 colon
[10] = tested on: HCT-116 colon
[11] = tested on: HCT-15 colon
[12] = tested on: HL-60(TB) leukemia
[13] = tested on: HOP-62 NSCLC
[14] = tested on: HOP-92 NSCLC
[15] = tested on: HS 578T breast
[16] = tested on: HT29 colon
[17] = tested on: IGROV1 ovarian
[18] = tested on: K-562 leukemia
[19] = tested on: KM12 colon
[20] = tested on: M14 melanoma
[21] = tested on: MALME-3M melanoma
[22] = tested on: MCF7 breast
[23] = tested on: MDA-MB-231 breast
[24] = tested on: MDA-MB-435
[25] = tested on: NCI-H226 lung
[26] = tested on: NCI-H23 lung
[27] = tested on: NCI-H460 lung
[28] = tested on: NCI-H522 lung
[29] = tested on: NCI/ADR-RES ovarian
[30] = tested on: OVCAR-3 ovarian
[31] = tested on: OVCAR-4 ovarian
[32] = tested on: OVCAR-5 ovarian
[33] = tested on: PC-3 prostate
[34] = tested on: RPMI-8226 leukemia
[35] = tested on: RXF 393 renal
[36] = tested on: SF-268 CNS
[37] = tested on: SF-295 CNS
[38] = tested on: SF-539 CNS
[39] = tested on: SK-MEL-2 melanoma
[40] = tested on: SK-MEL-28 melanoma
[41] = tested on: SK-MEL-5 melanoma
[42] = tested on: SK-OV-3 ovarian
[43] = tested on: SN12C renal
[44] = tested on: SNB-19 CNS
[45] = tested on: SNB-75 CNS
[46] = tested on: SR leukemia
[47] = tested on: SW-620 colon
[48] = tested on: T-47D breast
[49] = tested on: TK-10 renal
[50] = tested on: U251 CNS
[51] = tested on: UACC-257 melanoma
[52] = tested on: UACC-62 melanoma
[53] = tested on: UO-31 renal

Fc1ccc([C@@H]2CCNC[C@H]2COc2ccc3c(c2)OCO3)cc1
GI50 [1]: 12.3 µM | TGI [1]: 25.7 µM | GI50 [2]: 5.52 µM | TGI [2]: 19.2 µM | GI50 [3]: 14.6 µM | TGI [3]: 29 µM | GI50 [4]: 10.8 µM | TGI [4]: 24 µM | GI50 [5]: 12.2 µM | TGI [5]: 26.1 µM | GI50 [6]: 12.1 µM | TGI [6]: 25.3 µM | GI50 [7]: 1.91 µM | TGI [7]: 3.69 µM | GI50 [8]: 13.1 µM | TGI [8]: 26.5 µM | GI50 [9]: 2.1 µM | TGI [9]: 4.39 µM | GI50 [10]: 6.07 µM | TGI [10]: 21.8 µM | GI50 [11]: 11 µM | TGI [11]: 27 µM | GI50 [12]: 4.95 µM | TGI [12]: 19.9 µM | GI50 [13]: 13.3 µM | TGI [13]: 27.4 µM | GI50 [14]: 1.62 µM | TGI [14]: 12.8 µM | GI50 [15]: 19.8 µM | TGI [15]: 62.3 µM | GI50 [16]: 3.52 µM | TGI [16]: 13.9 µM | GI50 [17]: 7.05 µM | TGI [17]: 20.3 µM | GI50 [18]: 2.32 µM | TGI [18]: 6.24 µM | GI50 [19]: 3.86 µM | TGI [19]: 14.1 µM | GI50 [20]: 2.93 µM | TGI [20]: 11.1 µM | GI50 [21]: 2.68 µM | TGI [21]: 6.12 µM | GI50 [22]: 3.23 µM | TGI [22]: 14.6 µM | GI50 [23]: 3.07 µM | TGI [23]: 15 µM | GI50 [24]: 2.31 µM | TGI [24]: 7.96 µM | GI50 [25]: 13.7 µM | TGI [25]: 29.9 µM | GI50 [26]: 15.4 µM | TGI [26]: 32.5 µM | GI50 [27]: 5.51 µM | TGI [27]: 18.6 µM | GI50 [28]: 12 µM | TGI [28]: 25.4 µM | GI50 [29]: 14 µM | TGI [29]: 30 µM | GI50 [30]: 10.5 µM | TGI [30]: 22.8 µM | GI50 [31]: 10.6 µM | TGI [31]: 23.1 µM | GI50 [32]: 14.3 µM | TGI [32]: 28.4 µM | GI50 [33]: 3.83 µM | TGI [33]: 17.2 µM | GI50 [34]: 2.4 µM | TGI [34]: 8.9 µM | GI50 [35]: 5.28 µM | TGI [35]: 20.1 µM | GI50 [36]: 10.8 µM | TGI [36]: 23.5 µM | GI50 [37]: 4.07 µM | TGI [37]: 17.1 µM | GI50 [38]: 12.8 µM | TGI [38]: 25.6 µM | GI50 [39]: 5.72 µM | TGI [39]: 18.5 µM | GI50 [40]: 5.96 µM | TGI [40]: 19 µM | GI50 [41]: 4.42 µM | TGI [41]: 17 µM | GI50 [42]: 12.7 µM | TGI [42]: 25.7 µM | GI50 [43]: 5.79 µM | TGI [43]: 18.9 µM | GI50 [44]: 12 µM | TGI [44]: 25.4 µM | GI50 [45]: 1.32 µM | TGI [45]: 7.61 µM | GI50 [46]: 2.02 µM | TGI [46]: 5.34 µM | GI50 [47]: 10.6 µM | TGI [47]: 24.2 µM | GI50 [48]: 5.53 µM | TGI [48]: 20.4 µM | GI50 [49]: 11.3 µM | TGI [49]: 23.8 µM | GI50 [50]: 8.18 µM | TGI [50]: 21.1 µM | GI50 [51]: 11.2 µM | TGI [51]: 24.6 µM | GI50 [52]: 5.52 µM | TGI [52]: 18.8 µM | GI50 [53]: 5.76 µM | TGI [53]: 19.6 µM
